Source: PMC5219937 (Bioconjugate chemistry, 2015)
Read-outs that look alike come from different tables or passages of the source.

How the values were obtained:
[1] = cited from earlier work
[2] = system: type 2 diabetic C57BL/6 db/db mice; assay: Hypoglycemic effect after subcutaneous injection in db/db mice; format: in vivo, mouse

## GLP-1: 30-amino-acid peptide hormone secreted from gut endocrine L cells
[1]; endogenous GLP-1, degraded by DPP-4 once secreted
  half-lifetime: 1 to 2 min

## Exenatide: commercial exendin-4
[1]
  circulating half-life: 90 to 216 min

## Albiglutide: a exendin-4-albumin fusion protein, FDA approved, once a week administration
[2]; dose 14 nmol/kg (Figure S8b)
  blood glucose level: 11.88 mmol/L
[2]; dose 69 nmol/kg
  time required to rebound to a glucose level of 8.35 mmol/L (hypoglycemic duration): 11 h
[2]; dose 69 nmol/kg, three mice, mean
  lowest glucose level: 7.03 mmol/L
[2]; dose 123 nmol/kg (Figure S8c)
  lowest glucose level: 6.67 mmol/L
[2]; dose 123 nmol/kg (Figure S8d)
  time required to rebound to a glucose level of 8.35 mmol/L (hypoglycemic duration): 28 h
[1]
  half-lifetime: 5800 to 10000 min
